Laboratory results published in patent publication US9061016B2, “Aqueous solution comprising 3-quinuclidinones for the treatment hyperproliferative, autoimmune and heart disease” (APREA AB, priority 2010, dated 2015).

Key:
[1] = test system: 22Rv1; experiment: Effect of APR-246 on cell viability in cancer cell lines; assay type: cell-based; conditions: Homo sapiens, Prostate carcinoma 22Rv1, mean±SD
Procedure: (§1) The therapeutic activity of the compound 2-(hydroxymethyl)-2-(methoxymethyl)-quinuclidin-3-one (herein also referred to as APR-246) in the treatment of various cancers has been shown by in vitro assays using various cancer cell lines, cf. Table 2, wherein the IC50 of APR-246 in various types of cancerous cells is shown.
(§2) In Table 2, the results are shown as mean±SD; the IC50 values are calculated as the average of the IC50 values in the individual experiments.

[2] = test system: PC3-puro; experiment: as above; assay type: cell-based; conditions: Prostate adenocarcinoma PC3-puro, mean±SD
Procedure: as §1, §2

[3] = test system: MCF-7; experiment: as above; assay type: cell-based; conditions: Homo sapiens, MCF7, Breast adenocarcinoma MCF-7, mean±SD
Procedure: as §1, §2

[4] = test system: U-2OS; experiment: as above; assay type: cell-based; conditions: Homo sapiens, U2OS, Osteosarcoma U-2OS, mean±SD
Procedure: as §1, §2

[5] = test system: H1299-His175; experiment: as above; assay type: cell-based; conditions: Non-small cell lung carcinoma H1299-His175, mean±SD
Procedure: as §1, §2

[6] = test system: MDA-MB-231; experiment: as above; assay type: cell-based; conditions: Homo sapiens, Breast adenocarcinoma MDA-MB-231, mean±SD
Procedure: as §1, §2

[7] = test system: HT-29; experiment: as above; assay type: cell-based; conditions: Homo sapiens, Colorectal adenocarcinoma HT-29, mean±SD
Procedure: as §1, §2

[8] = test system: H1299; experiment: as above; assay type: cell-based; conditions: Homo sapiens, NCI-H1299, Non-small cell lung carcinoma H1299, mean±SD
Procedure: as §1, §2

[9] = test system: SaOS-2; experiment: as above; assay type: cell-based; conditions: Homo sapiens, Osteosarcoma SaOS-2, mean±SD
Procedure: as §1, §2

[10] = test system: BT-474; experiment: as above; assay type: cell-based; conditions: Homo sapiens, Breast ductal carcinoma BT-474, mean±SD
Procedure: as §1, §2

[11] = test system: KBM3; experiment: as above; assay type: cell-based; conditions: Acute Myelomonocytic Leukaemia KBM3, mean±SD
Procedure: as §1, §2

[12] = test system: SaOS-2-His273; experiment: as above; assay type: cell-based; conditions: Osteosarcoma SaOS-2-His273, mean±SD
Procedure: as §1, §2

[13] = test system: PC3-175; experiment: as above; assay type: cell-based; conditions: Prostate adenocarcinoma PC3-175, mean±SD
Procedure: as §1, §2

[14] = Solubility and pH of APR-246 in water solutions; assay type: physicochemical
[15] = Stability studies of APR-246 in an aqueous system at different pH; assay type: physicochemical
Procedure: Several aqueous formulations of APR-246 and of the hydrochloric acid addition salt of APR-246 were prepared and tested for stability.
The stability increases with decreased pH. To establish a suitable pH for APR-246 with respect to stability, studies with the drug substance in different solutions at different pH were performed.
(§3) HPLC—Chromatography was performed on an Agilent 1100/1200 series HPLC system using a Purospher Star RP-18e, 5 μm (250×4.6) mm Column at 20° C. Sample temperature was set to 5° C. by a thermostat. Detection was accomplished by means of a UV/VIS DAD detector at 210 nm. The flow rate was set to 1.0 mL/min and the injection volume was 10 μL. The mobile phase used was a gradient of phosphate buffer (A) in acetonitrile (B): 0-5 min: 90% A, 5-20 min: 70% A, 20-35 min: 20% A, 35-45 min: 90% A. The calibration was obtained using pure APR-246 standard solutions freshly prepared prior to analyses. Data acquisition was performed electronically. The method has been validated.

[16] = test system: AML MV-4-11 cells; experiment: Hollow fiber in vivo mouse model; conditions: AML MV-4-11 cells in hollow fibers in mice; end of the experiment; by number
Procedure: Data is shown as mean±SEM (n=7-8).
Furthermore, in vivo experiments using the hollow fiber mouse model with 2-(hydroxymethyl)-2-(methoxymethyl)quinuclidin-3-one indicate that inventive compounds have a significant anti-leukemic effect. These experiments were performed using the hollow fiber in vivo mouse model (for a short description of the model, cf. the internet website http://dtp.nci.nih.gov/timeline/noflash/milestones/M13_hollow_fiber.htm).

[17] = HPLC-UV before and after autoclaving of APR-246 solution; assay type: physicochemical; conditions: autoclaving at 121° C.
Procedure: as §3, with “validated. The APR-246 drug product was a sterile concentrate for solution for infusion. The solution was sterilised by filtration according to Ph Eur standard method and aseptically filled in vials.” for “validated.”

[18] = Long term stability studies of APR-246 in aqueous system; assay type: physicochemical
Procedure: as §3, with “APR-246 stock solutions were manufactured at a concentration of about 150 mg/mL at pH 3.9. The finished product consisted of 21.5-22.0 mL of drug product aseptically filled into presterilized 50 mL glass vials. The manufacturing was in compliance with Good Manufacturing Practices regulations. […] HPLC—Chromatography” for “HPLC—Chromatography”

[19] = Infusion bag compatibility study; assay type: physicochemical
Procedure: as §3, with “validated. This example summarizes the results of a compatibility study of the APR-246 drug product (150 mg/mL stock solution) in six infusion bags, to confirm physical and chemical stability of the drug product in the NaCl solution and compatibility with infusion bags and tubing device material. The drug product should be diluted with sterile 0.9% NaCl solution for infusion to a total volume of 500 ml before administration. The duration of the study covers a period beyond finalisation of infusion to the patient. The study was designed for a worst case lowest dose of 0.15 mg/mL and for a worst case highest dose of 24 mg/mL. […]” for “validated.”

`COCC1(CO)C(=O)C2CCN1CC2` (stereo not shown) [APR-246, 2-(hydroxymethyl)-2-(methoxymethyl)quinuclidin-3-one] gave an IC50 [1] of 10 ± 0.6 µM, an IC50 [2] of 27 ± 3 µM and an IC50 [3] of 15 ± 1 µM. The IC50 [4] was 15 ± 4 µM, the IC50 [5] was 14 ± 8 µM and the IC50 [6] was 18 ± 5 µM. For the same molecule, the IC50 [7] was 25 ± 5 µM, the IC50 [8] was 16 ± 7 µM and the IC50 [9] was 27 ± 5 µM. The IC50 [10] was 3 ± 2 µM, the IC50 [11] was 7 ± 1 µM and the IC50 [12] was 14 ± 3 µM. For the same molecule, the IC50 [13] was 23 ± 7 µM, the “solubility in water solutions” value [14] was “readily soluble” and the “stability of formulations with pH above 6” value ([15]; pH above 6, model systems of Table 3) was “stability problems”. The “degradation in aqueous solutions” value ([15]; room temperature and lower temperatures, regardless of the concentration profile) was “suffered from degradation”, the “net growth of leukemic cells” value [16] was “about −25%” and the “degradation on autoclaving the solution in the final container” value [17] was “degradation was too pronounced”. The “long term stability in the inventive formulation” value ([18]; formulated for clinical use, about 150 mg/mL, pH 3.9) was “stable”, the “expected degradation on storage” value ([18]; over a period of two years, stored at 2-8° C.) was “no significant degradation” and the “stability in infusion bag over the range of the study” value ([19]; high concentration) was “satisfactory stability”. The “stability in infusion bag over the range of the study” value ([19]; low concentration) was “satisfactory stability”.
